Laboratory results as given in article PMC2929565 (Toxicology and applied pharmacology, 2010).
Like-named read-outs stand apart in the source and are kept apart here. Marks after values point to notes of the source that are not given here.

What was measured:
rats [1] = settings: rat, in vivo; cited from earlier work
[2] = molecular target: rat Nav1.6 sodium channels (Rattus norvegicus, UniProt O88420); format: cell-based; settings: for Effect of repetitive depolarization on modification (words): trains of high-frequency depolarizing prepulses; for Steady-state inactivation K (slope factor) / Activation K (slope factor) / Activation V0.5 (midpoint potential) / Steady-state inactivation V0.5 (midpoint potential) / Tail current decay time constant, fast component (τ1) / Peak current inactivation time constant, fast component (τfast) / Peak current inactivation time constant, slow component (τslow): pyrethroid 100 μM; for Steady-state inactivation K (slope factor) / Activation K (slope factor) / Activation V0.5 (midpoint potential) / Steady-state inactivation V0.5 (midpoint potential): Boltzmann fit; for Steady-state inactivation K (slope factor): control 7.02 ± 0.13; for Activation K (slope factor): control 8.02 ± 0.23; for Activation V0.5 (midpoint potential): control −17.0 ± 0.4; for Steady-state inactivation V0.5 (midpoint potential): control −50.3 ± 0.3; for Tail current decay time constant, fast component (τ1) / Peak current inactivation time constant, fast component (τfast) / Peak current inactivation time constant, slow component (τslow): mean ± SE; for Peak current inactivation time constant, fast component (τfast): control 1.32 ± 0.03; for Peak current inactivation time constant, slow component (τslow): control 10.93 ± 2.25
[3] = molecular target: rat Nav1.2 sodium channels (Rattus norvegicus, UniProt P04775, N209D); format: cell-based
rats [4] = assay: Acute oral toxicity to rats; format: in vivo, rat; settings: ref Soderlund et al., 2002
[5] = 0 prepulses, Hill fit, mean ± SE of 5
[6] = 100 prepulses, Hill fit, mean ± SE of 5
[7] = EC10 0 prepulses vs 100 prepulses

Chain of rat Nav1.6 sodium channels (O88420 whole entry): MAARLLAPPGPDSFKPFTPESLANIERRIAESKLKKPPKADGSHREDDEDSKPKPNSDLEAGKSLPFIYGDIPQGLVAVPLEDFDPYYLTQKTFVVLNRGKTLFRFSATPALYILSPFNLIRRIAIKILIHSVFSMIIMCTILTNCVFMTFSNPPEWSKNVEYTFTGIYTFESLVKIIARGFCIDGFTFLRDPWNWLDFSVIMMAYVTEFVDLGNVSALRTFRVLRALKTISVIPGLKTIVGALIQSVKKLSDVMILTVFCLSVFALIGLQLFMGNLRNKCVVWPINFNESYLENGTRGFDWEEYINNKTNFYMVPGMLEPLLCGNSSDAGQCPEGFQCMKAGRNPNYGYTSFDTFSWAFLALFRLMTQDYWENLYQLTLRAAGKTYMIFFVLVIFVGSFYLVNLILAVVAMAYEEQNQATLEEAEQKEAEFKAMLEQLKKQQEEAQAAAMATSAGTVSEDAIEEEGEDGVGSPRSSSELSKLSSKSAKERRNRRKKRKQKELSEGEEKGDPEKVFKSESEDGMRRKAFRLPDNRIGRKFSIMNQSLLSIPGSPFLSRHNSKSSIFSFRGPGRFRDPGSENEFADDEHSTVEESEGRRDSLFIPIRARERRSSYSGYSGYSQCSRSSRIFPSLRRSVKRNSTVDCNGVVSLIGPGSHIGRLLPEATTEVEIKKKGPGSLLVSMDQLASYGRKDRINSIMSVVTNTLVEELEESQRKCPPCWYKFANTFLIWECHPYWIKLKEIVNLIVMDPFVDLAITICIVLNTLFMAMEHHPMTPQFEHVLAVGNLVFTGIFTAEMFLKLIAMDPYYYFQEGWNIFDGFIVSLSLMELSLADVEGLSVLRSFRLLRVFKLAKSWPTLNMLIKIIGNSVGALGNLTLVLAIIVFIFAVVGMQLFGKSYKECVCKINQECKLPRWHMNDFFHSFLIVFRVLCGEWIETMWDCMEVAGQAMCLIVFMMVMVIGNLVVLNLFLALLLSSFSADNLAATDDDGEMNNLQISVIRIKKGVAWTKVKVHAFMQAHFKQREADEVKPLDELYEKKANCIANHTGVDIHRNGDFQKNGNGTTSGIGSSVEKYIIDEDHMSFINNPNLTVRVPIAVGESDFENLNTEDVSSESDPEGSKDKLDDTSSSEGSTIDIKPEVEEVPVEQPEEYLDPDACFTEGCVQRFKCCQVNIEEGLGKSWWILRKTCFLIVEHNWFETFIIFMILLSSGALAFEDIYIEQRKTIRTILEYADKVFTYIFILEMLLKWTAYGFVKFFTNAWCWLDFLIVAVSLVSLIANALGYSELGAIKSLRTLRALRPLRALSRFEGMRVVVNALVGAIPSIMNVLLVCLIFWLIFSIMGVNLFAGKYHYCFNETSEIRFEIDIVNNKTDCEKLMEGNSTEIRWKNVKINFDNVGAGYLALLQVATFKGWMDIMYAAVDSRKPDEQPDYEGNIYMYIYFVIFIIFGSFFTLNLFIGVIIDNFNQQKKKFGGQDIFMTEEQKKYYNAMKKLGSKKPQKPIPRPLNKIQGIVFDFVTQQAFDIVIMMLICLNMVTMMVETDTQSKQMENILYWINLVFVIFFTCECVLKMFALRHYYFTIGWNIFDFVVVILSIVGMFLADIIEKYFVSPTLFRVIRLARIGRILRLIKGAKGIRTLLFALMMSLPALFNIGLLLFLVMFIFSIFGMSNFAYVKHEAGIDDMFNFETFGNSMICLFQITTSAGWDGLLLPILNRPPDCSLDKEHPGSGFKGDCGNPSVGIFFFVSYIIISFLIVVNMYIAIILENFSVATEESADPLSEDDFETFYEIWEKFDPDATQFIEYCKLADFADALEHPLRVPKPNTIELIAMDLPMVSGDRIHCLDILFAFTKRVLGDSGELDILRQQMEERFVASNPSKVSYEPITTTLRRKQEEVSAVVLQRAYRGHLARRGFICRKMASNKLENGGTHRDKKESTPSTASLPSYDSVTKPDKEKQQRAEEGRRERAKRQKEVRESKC
Chain of rat Nav1.6 sodium channels (Q00954 19-218 partner): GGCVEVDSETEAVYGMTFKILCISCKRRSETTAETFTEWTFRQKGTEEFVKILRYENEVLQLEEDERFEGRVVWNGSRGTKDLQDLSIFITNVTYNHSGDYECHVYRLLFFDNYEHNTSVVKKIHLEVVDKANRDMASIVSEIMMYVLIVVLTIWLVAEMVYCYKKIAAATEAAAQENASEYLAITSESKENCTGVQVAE
Chain of rat Nav1.6 sodium channels (P54900 30-215 partner): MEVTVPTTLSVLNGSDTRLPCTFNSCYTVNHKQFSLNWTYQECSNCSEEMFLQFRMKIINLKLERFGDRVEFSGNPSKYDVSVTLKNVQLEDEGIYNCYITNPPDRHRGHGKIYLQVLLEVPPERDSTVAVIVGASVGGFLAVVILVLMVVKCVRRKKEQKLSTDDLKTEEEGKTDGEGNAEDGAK
Chain of rat Nav1.2 sodium channels (P04775 whole entry N209D): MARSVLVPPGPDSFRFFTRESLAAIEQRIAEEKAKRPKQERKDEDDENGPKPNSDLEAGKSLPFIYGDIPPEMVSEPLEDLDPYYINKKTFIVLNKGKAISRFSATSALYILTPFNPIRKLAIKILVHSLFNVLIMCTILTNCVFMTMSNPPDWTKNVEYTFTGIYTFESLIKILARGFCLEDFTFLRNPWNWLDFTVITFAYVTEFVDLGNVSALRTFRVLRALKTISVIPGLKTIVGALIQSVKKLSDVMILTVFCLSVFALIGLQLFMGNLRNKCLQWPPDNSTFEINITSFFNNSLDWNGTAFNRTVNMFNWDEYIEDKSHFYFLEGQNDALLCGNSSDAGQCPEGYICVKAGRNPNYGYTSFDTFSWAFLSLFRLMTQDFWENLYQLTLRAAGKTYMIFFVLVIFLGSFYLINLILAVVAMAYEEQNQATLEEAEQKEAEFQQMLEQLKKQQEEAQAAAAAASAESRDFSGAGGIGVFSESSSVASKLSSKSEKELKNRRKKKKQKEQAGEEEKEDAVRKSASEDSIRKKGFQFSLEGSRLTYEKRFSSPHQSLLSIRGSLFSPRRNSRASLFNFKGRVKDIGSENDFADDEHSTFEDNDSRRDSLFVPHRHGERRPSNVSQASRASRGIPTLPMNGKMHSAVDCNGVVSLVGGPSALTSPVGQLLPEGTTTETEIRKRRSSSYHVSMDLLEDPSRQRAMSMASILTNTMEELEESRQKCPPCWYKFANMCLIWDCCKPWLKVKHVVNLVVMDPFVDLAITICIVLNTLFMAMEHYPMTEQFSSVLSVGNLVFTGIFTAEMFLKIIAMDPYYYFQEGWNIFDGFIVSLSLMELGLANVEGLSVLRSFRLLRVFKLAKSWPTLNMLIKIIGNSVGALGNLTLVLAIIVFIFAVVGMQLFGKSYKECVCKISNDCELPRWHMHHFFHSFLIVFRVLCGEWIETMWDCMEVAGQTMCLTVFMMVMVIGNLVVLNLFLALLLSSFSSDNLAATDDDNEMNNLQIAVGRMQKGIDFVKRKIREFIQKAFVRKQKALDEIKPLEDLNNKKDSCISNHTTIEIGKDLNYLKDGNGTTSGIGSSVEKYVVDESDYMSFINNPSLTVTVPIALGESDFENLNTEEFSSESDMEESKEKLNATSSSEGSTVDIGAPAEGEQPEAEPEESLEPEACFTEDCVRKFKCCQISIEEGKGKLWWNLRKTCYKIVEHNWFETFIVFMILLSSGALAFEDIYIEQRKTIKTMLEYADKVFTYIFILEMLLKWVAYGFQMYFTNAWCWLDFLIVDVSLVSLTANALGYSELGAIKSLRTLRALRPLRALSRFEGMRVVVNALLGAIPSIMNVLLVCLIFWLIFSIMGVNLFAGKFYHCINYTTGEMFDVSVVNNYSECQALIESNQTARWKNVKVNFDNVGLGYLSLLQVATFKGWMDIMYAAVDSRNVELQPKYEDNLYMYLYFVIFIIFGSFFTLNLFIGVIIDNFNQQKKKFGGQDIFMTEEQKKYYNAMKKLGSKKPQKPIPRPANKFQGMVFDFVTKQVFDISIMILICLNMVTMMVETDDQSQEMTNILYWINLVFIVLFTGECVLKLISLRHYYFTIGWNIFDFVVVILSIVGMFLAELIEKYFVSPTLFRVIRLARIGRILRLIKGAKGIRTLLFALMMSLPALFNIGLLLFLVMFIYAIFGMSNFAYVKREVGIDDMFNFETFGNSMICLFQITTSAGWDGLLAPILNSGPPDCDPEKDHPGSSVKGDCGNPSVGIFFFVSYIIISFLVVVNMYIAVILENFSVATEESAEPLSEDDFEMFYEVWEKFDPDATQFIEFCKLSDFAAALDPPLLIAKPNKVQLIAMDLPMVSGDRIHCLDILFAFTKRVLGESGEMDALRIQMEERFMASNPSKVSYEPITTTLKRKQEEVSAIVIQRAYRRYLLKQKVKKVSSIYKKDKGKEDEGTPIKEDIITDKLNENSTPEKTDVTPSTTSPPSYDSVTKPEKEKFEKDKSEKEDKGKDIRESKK
Chain of rat Nav1.2 sodium channels (Q00954 19-218 partner): as the sequence (Q00954 19-218 partner) above
Chain of rat Nav1.2 sodium channels (P54900 30-215 partner): as the sequence (P54900 30-215 partner) above

**Q.** For `CC1(C)[C@H](C(=O)O[C@H](C#N)c2cccc(Oc3ccccc3)c2)[C@@H]1C=C(Br)Br` [deltamethrin], which “Acute oral LD50” value (rats [1]) is on record?
**A.** Its value is 95 mg/kg.

**Q.** Which results are given for `C=CCC1=C(C)[C@@H](OC(=O)[C@@H]2[C@@H](C=C(C)C)C2(C)C)CC1=O` [S-bioallethrin]?
**A.** Increase of inactivation-resistant current relative to control ([2]; 100 μM, prepulses above 0 mV, control approximately 2% of total current): approximately five-fold; Effect of repetitive depolarization on modification (words) ([2]; 100 μM): decreased slightly; Effect of repetitive depolarization on modification (words) ([2]; 100 μM, listed as S-Bioallethrin): no further enhancement of modification; Steady-state inactivation K (slope factor) [2]: 6.24 ± 0.23; Activation K (slope factor) [2]: 7.78 ± 0.52; Activation V0.5 (midpoint potential) [2]: −19.2 ± 1.1 mV; Steady-state inactivation V0.5 (midpoint potential) [2]: −52.8 ± 1.1 mV; Tail current decay time constant, fast component (τ1) [2]: 2.3 ± 0.4 ms; Peak current inactivation time constant, fast component (τfast) [2]: 2.11 ± 0.12 ^d ms; Peak current inactivation time constant, slow component (τslow) [2]: 7.30 ± 0.35 ^d ms

**Q.** What does the source list for `Cc1c(F)c(F)c(COC(=O)[C@@H]2[C@H](/C=C(\Cl)C(F)(F)F)C2(C)C)c(F)c1F` (racemic) [tefluthrin]?
**A.** EC10, resting modification [2, 5]: 14.1 ± 3.7 µM; Prepulse number up to which extent of modification increased, then stable ([2]; 100 μM): 80 prepulses; Tail current τ1 relative to S-bioallethrin-induced currents ([2]; 100 μM): approximately 4 fold; Increase of extent of channel modification by repetitive depolarization ([2]; 100 μM, 100 prepulses vs 0 prepulses): 2.8 fold; Potency relative to deltamethrin as use-dependent modifier (EC10) ([2]; 100 prepulses): ~ 10 fold; EC10, use-dependent modification [2, 6]: 0.95 ± 0.22 µM; Increase of sensitivity (EC10) to the compound by repetitive depolarization [2, 7]: ~ 15 fold; Sensitivity of Nav1.6 isoform relative to Nav1.2 isoform (concentration–effect data) ([2]; abstract summary, state not specified): at least 15 fold; Steady-state inactivation K (slope factor) [2]: 6.03 ± 0.10 ^b; Activation K (slope factor) [2]: 8.06 ± 0.21; Activation V0.5 (midpoint potential) [2]: −17.0 ± 1.0 mV; Steady-state inactivation V0.5 (midpoint potential) [2]: −52.3 ± 1.2 mV; Tail current decay time constant, fast component (τ1) [2]: 9.8 ± 0.6 ms; Peak current inactivation time constant, fast component (τfast) [2]: 1.12 ± 0.04 ^d ms; Peak current inactivation time constant, slow component (τslow) [2]: 19.00 ± 0.64 ^d ms; EC10, resting modification [3, 5]: 222 ± 82 µM; EC10, use-dependent modification [3, 6]: 16.9 ± 5.5 µM; Increase of sensitivity (EC10) to the compound by repetitive depolarization [3, 7]: approximately 13 fold; Acute oral LD50 lower than that of deltamethrin (rats [4]): approximately 5 fold
